Assays:
[1] = system: healthy male volunteers; assay: Undesired drug effects / adverse events questionnaire (y/n and VAS 0–100); type: in vivo, human
Experimental: (§1) The participants were monitored with regard to AEs throughout the experiment by the study physician, including questionnaire-based assessments (VAS, 0-100 or y/n) of physical and mental discomfort, breathing difficulties, racing heartbeat, chest or abdominal pains, unpleasant body sensations/muscle pain, headache, nausea, vomiting, and fainting at baseline (−105), 0, 30, 60, 120, 240, and 300 minutes after DMT/placebo administration. Vital signs (systolic/diastolic blood pressure [DBP], heart rate, body temperature [BT]) were assessed using a semiautomatic blood pressure and oral temperature recording device throughout the study at baseline (−45), 0, 30, 120, 150, 210, and 270 minutes after the first DMT/placebo administration.

[2] = system: healthy male volunteers; details: in vivo
Experimental: as §1

[3] = system: healthy male volunteers; assay: Acute subjective drug effects, visual analog scales (VAS 0–100); type: in vivo, human; details: for subjective ratings of acute drug effects compared to placebo: 100 mg buccal harmine alone vs placebo
Experimental: The detailed dosing scheme is depicted in Figure 1.
The intensity of acute subjective effects was monitored with visual analog scales (VASs, range 0–100) on a touchscreen tablet throughout the study day at baseline (−90), 0, 30, 60, 90, 120, 180, 240, and 300 after the first DMT/placebo administration. At 360 minutes after the first DMT/placebo administration, a phenomenological interview was conducted with participants to further explore acute subjective drug effects. For PK-PD analyses, we included VAS for intensity, liking, disliking, and arousal in the present paper. Further analyses on a set of neurophysiological, psychometric, and phenomenological assessments will be presented in forthcoming manuscripts.

[4] = 180 min after first intranasal DMT/placebo administration
[5] = 240 min after first intranasal DMT/placebo administration
[6] = 300 min after first intranasal DMT/placebo administration
[7] = −105 min (baseline) relative to first intranasal DMT/placebo administration

With COc1ccc2c(c1)[nH]c1c(C)nccc12 [Harmine, harmine] the “Somatic distress, mean intensity [0–100] (SD)” value (“Somatic distress … (SD)” below) [1, 4] was 13 (3), the “Somatic distress, number of participants reporting” value (“Somatic distress, number” below) [1, 4] was 4 and the “Stomach ache, mean intensity [0–100] (SD)” value (“Stomach ache … (SD)” for short) [1, 4] was 0 (0). The “Stomach ache, number of participants reporting” value (“Stomach ache, number” for short) [1, 4] was 0, the “Vomiting, mean intensity [0–100] (SD)” value [1, 4] was 0 (0) and the “Vomiting, number of participants reporting” value (from here on “Vomiting, number”) [1, 4] was 0. The “Breathing difficulty, mean intensity [0–100] (SD)” value (from here on “Breathing difficulty … (SD)”) [1, 5] was 6 (0), the “Breathing difficulty, number of participants reporting” value (“Breathing difficulty, number” below) [1, 5] was 1 and the “Chest pain, mean intensity [0–100] (SD)” value [1, 5] was 1 (0). For the same compound, the “Chest pain, number of participants reporting” value (“Chest pain, number” below) [1, 5] was 1, the “Fainting, mean intensity [0–100] (SD)” value [1, 5] was 0 (0) and the “Fainting, number of participants reporting” value (from here on “Fainting, number”) [1, 5] was 0. For the same compound, the “Head ache, mean intensity [0–100] (SD)” value [1, 5] was 27 (0), the “Head ache, number of participants reporting” value (“Head ache, number” for short) [1, 5] was 1 and the “Heart racing, mean intensity [0–100] (SD)” value (from here on “Heart racing … (SD)”) [1, 5] was 3 (0). The “Heart racing, number of participants reporting” value (“Heart racing, number” below) [1, 5] was 1, the “Muscle ache, mean intensity [0–100] (SD)” value [1, 5] was 21 (5) and the “Muscle ache, number of participants reporting” value (“Muscle ache, number” below) [1, 5] was 3. The “Nausea, mean intensity [0–100] (SD)” value [1, 5] was 2 (0), the “Nausea, number of participants reporting” value [1, 5] was 1 and the “Psychological distress, mean intensity [0–100] (SD)” value (shortened to “Psychological distress … (SD)”) [1, 5] was 3 (1). For the same compound, the “Psychological distress, number of participants reporting” value (shortened to “Psychological distress, number”) [1, 5] was 2, the “Somatic distress … (SD)” value [1, 5] was 16 (12) and the “Somatic distress, number” value [1, 5] was 4. The “Stomach ache … (SD)” value [1, 5] was 32 (44), the “Stomach ache, number” value [1, 5] was 2 and the “Vomiting, mean intensity [0–100] (SD)” value [1, 5] was 0 (0). For the same compound, the “Vomiting, number” value [1, 5] was 0, the “Breathing difficulty … (SD)” value [1, 6] was 3 (0) and the “Breathing difficulty, number” value [1, 6] was 1. The “Chest pain, mean intensity [0–100] (SD)” value [1, 6] was 0 (0), the “Chest pain, number” value [1, 6] was 0 and the “Fainting, mean intensity [0–100] (SD)” value [1, 6] was 0 (0). For the same compound, the “Fainting, number” value [1, 6] was 0, the “Head ache, mean intensity [0–100] (SD)” value [1, 6] was 0 (0) and the “Head ache, number” value [1, 6] was 0. For the same compound, the “Heart racing … (SD)” value [1, 6] was 49 (0), the “Heart racing, number” value [1, 6] was 1 and the “Muscle ache, mean intensity [0–100] (SD)” value [1, 6] was 9 (11). The “Muscle ache, number” value [1, 6] was 2, the “Nausea, mean intensity [0–100] (SD)” value [1, 6] was 2 (1) and the “Nausea, number of participants reporting” value [1, 6] was 2. The “Psychological distress … (SD)” value [1, 6] was 70 (0), the “Psychological distress, number” value [1, 6] was 1 and the “Somatic distress … (SD)” value [1, 6] was 12 (5). For the same compound, the “Somatic distress, number” value [1, 6] was 3, the “Stomach ache … (SD)” value [1, 6] was 2 (0) and the “Stomach ache, number” value [1, 6] was 1. For the same compound, the “Vomiting, mean intensity [0–100] (SD)” value [1, 6] was 0 (0), the “Vomiting, number” value [1, 6] was 0 and the “overall safety and tolerability of drug-induced AEs” value ([1]; in vivo) was “mild and well tolerated”. For the same compound, the “Breathing difficulty … (SD)” value [1, 7] was 12 (15), the “Breathing difficulty, number” value [1, 7] was 2 and the “Chest pain, mean intensity [0–100] (SD)” value [1, 7] was 0 (0). The “Chest pain, number” value [1, 7] was 0, the “Fainting, mean intensity [0–100] (SD)” value [1, 7] was 0 (0) and the “Fainting, number” value [1, 7] was 0. The “Head ache, mean intensity [0–100] (SD)” value [1, 7] was 8 (7), the “Head ache, number” value [1, 7] was 3 and the “Heart racing … (SD)” value [1, 7] was 9 (6). The “Heart racing, number” value [1, 7] was 3, the “Muscle ache, mean intensity [0–100] (SD)” value [1, 7] was 11 (9) and the “Muscle ache, number” value [1, 7] was 5. The “Nausea, mean intensity [0–100] (SD)” value [1, 7] was 6 (0), the “Nausea, number of participants reporting” value [1, 7] was 1 and the “Psychological distress … (SD)” value [1, 7] was 13 (8). For the same compound, the “Psychological distress, number” value [1, 7] was 4, the “Somatic distress … (SD)” value [1, 7] was 17 (12) and the “Somatic distress, number” value [1, 7] was 7. For the same compound, the “Stomach ache … (SD)” value [1, 7] was 12 (15), the “Stomach ache, number” value [1, 7] was 2 and the “Vomiting, mean intensity [0–100] (SD)” value [1, 7] was 0 (0). The “Vomiting, number” value [1, 7] was 0, the “change of cardiovascular parameters” value [2] was “no relevant changes” and the “subjective ratings of acute drug effects compared to placebo” value [3] was “no statistical differences”. The “subjective ratings of acute drug effects compared to placebo” value ([3]; listed as HAR) was “no significant difference”, the “effect size, intensity ratings, contrast vs PLA” value ([3]; at 90 minutes (max. intensity ratings)) was 0.133 and the “effect size, intensity ratings, contrast vs PLA” value ([3]; at 240 minutes) was 0.127. The “peak effects of arousal, VAS” value ([3]; mean (SD)) was 9.9 % of the maximal possible scor, the “peak effects of disliking, VAS” value ([3]; mean (SD)) was 7.8 % of the maximal possible scor and the “peak effects of liking, VAS” value ([3]; mean (SD)) was 20.0 % of the maximal possible scor. The “peak intensity, VAS” value ([3]; mean (SD)) was 7.6 % of the maximal possible scor.

From PMC11770821, “Pharmacokinetics and pharmacodynamics of an innovative psychedelic N,N-dimethyltryptamine/harmine formulation in healthy participants: a randomized controlled trial” (International Journal of Neuropsychopharmacology, 2025)
